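Test compounds were applied to cells in 96-well plates for 48 hours at 5 doses. GI50: concentration for 50% inhibition of growth. TGI is the concentration that stops growth completely.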
Legend:
Test in all cases: NCI-60 cell line screen, 48 h
HOP-92 NSCLC = test system: HOP-92 NSCLC
HS 578T breast = test system: HS 578T breast
MALME-3M melanoma = test system: MALME-3M melanoma
NCI-H460 lung = test system: NCI-H460 lung
OVCAR-8 ovarian = test system: OVCAR-8 ovarian
SNB-75 CNS = test system: SNB-75 CNS
EKVX NSCLC = test system: EKVX NSCLC
U251 CNS = test system: U251 CNS
MCF7 breast = test system: MCF7 breast

| SMILES | TGI (HOP-92 NSCLC) [µM] | TGI (HS 578T breast) [µM] | TGI (MALME-3M melanoma) [µM] | TGI (NCI-H460 lung) [µM] | TGI (OVCAR-8 ovarian) [µM] | TGI (SNB-75 CNS) [µM] | TGI (EKVX NSCLC) [µM] | TGI (U251 CNS) [µM] | TGI (MCF7 breast) [µM] | GI50 (HOP-92 NSCLC) [µM] | GI50 (HS 578T breast) [µM] | GI50 (MALME-3M melanoma) [µM] | GI50 (NCI-H460 lung) [µM] | GI50 (OVCAR-8 ovarian) [µM] | GI50 (SNB-75 CNS) [µM] | GI50 (EKVX NSCLC) [µM] | GI50 (U251 CNS) [µM] | GI50 (MCF7 breast) [µM] |
| --- | --- | --- | --- | --- | --- | --- | --- | --- | --- | --- | --- | --- | --- | --- | --- | --- | --- | --- |
| Cc1[nH]c(=O)[nH]c(=S)c1C(=O)Nc1cccc2cc3ccccc3cc12 | > 100 | > 100 | > 100 | > 100 | > 100 | > 100 | > 100 | > 100 | > 100 | – | – | – | – | – | – | – | – | – |
| COC1(OC)c2no[n+]([O-])c2C(OC)(OC)c2c1no[n+]2[O-] | – | 97.7 | 29.4 | > 100 | 26.7 | 83.3 | 41.6 | – | 42.7 | – | – | – | – | – | – | – | – | – |
| COc1ccc2nc3n(c2c1)CCc1cc(OC)c(OC)cc1-3 | > 100 | > 100 | > 100 | > 100 | > 100 | > 100 | > 100 | > 100 | > 100 | – | – | – | – | – | – | – | – | – |
| CCC(CC(C)C)Nc1ccc(NC(CC)CC(C)C)cc1 (stereo not drawn) | 24.7 | > 100 | 34.3 | 40.9 | 34.2 | 38.2 | 37.6 | 26.6 | 28.4 | 10.7 | 25 | 14.7 | 17.5 | 18.2 | 15.4 | 16.7 | 13 | 15.2 |
| CC1OC2OC3C(OCC(O)C3O)OC(=O)[C@]34CCC(C)(C)CC3C3=CCC5[C@@]6(C)C[C@H](O)[C@H](OC7OC(CO)C(O)C(O)C7OC7OCC(OC(=O)CC(C)(O)CC(=O)OC1C(OC1OC(CO)C(O)C(O)C1O)C2O)C(O)C7O)[C@@](C)(CO)C6CC[C@@]5(C)[C@]3(C)CC4 (stereo partly drawn) | 21.6 | 30.1 | 17.5 | 22.7 | 23.6 | 22.9 | – | 18.6 | 23.6 | – | – | – | – | – | – | – | – | – |
| NCCC1CN(C(=O)OCc2ccccc2)c2ccccc21 (stereo not drawn) | 26.9 | 56.8 | 29.1 | 43.4 | 20.3 | 43.3 | 84.4 | 32.4 | 22.9 | – | – | – | – | – | – | – | – | – |
| COC(=O)C1=C(O)C(C(=O)OC)[C@]2(O)[C@H](C(=O)OC)[C@H]1C[C@@H](c1ccc([N+](=O)[O-])cc1)[C@H]2C(=O)OC (stereo partly drawn) | – | – | 17.5 | > 100 | 41.4 | > 100 | > 100 | 28.6 | – | – | – | – | – | – | – | – | – | – |
| CCN(CC)c1nc(N(C)C)c2ccccc2n1 | > 100 | > 100 | > 100 | > 100 | > 100 | > 100 | 51.1 | > 100 | > 100 | – | – | – | – | – | – | – | – | – |
| C=C(C)[C@@H]1CC[C@]2(C(=O)O)CC[C@]3(C)[C@H](CCC4[C@@]5(C)CC[C@H](C(=O)/C=C/c6ccc(O)c(O)c6)C(C)(C)[C@@H]5CC[C@]43C)[C@@H]12 (stereo partly drawn) | – | 46.2 | – | 16.2 | 54.5 | > 100 | > 100 | – | 14.9 | – | – | – | – | – | – | – | – | – |
| Cc1ccc(-c2n[nH]c(=O)n2/N=C\c2ccccc2)cc1 | 66.4 | 81.3 | > 100 | > 100 | > 100 | 80.3 | > 100 | > 100 | > 100 | – | – | – | – | – | – | – | – | – |
| COC(=O)c1c(C)nc(C)c(NO)c1-c1ccccc1C(F)(F)F | 29 | > 100 | 32.8 | > 100 | 33.2 | – | > 100 | > 100 | 39.2 | – | – | – | – | – | – | – | – | – |
| N/C(=N\Nc1ccc(S(N)(=O)=O)cc1)c1cnccn1 | > 100 | > 100 | > 100 | > 100 | > 100 | > 100 | > 100 | > 100 | > 100 | – | – | – | – | – | – | – | – | – |
| CC(C)OC1OC(CO)C(O)CC1n1cc(F)c(=O)[nH]c1=O (stereo not drawn) | > 100 | > 100 | > 100 | > 100 | > 100 | > 100 | > 100 | > 100 | > 100 | – | – | – | – | – | – | – | – | – |
| O=C1c2ccccc2-c2[nH]c3cn[nH]c(=O)c3c21 | > 100 | > 100 | > 100 | > 100 | > 100 | > 100 | > 100 | > 100 | > 100 | – | – | – | – | – | – | – | – | – |
| C/C(=N\Nc1nc2ccccc2[nH]1)c1cc2ccccc2cn1 | 0.819 | 1.74 | 0.664 | 1.45 | 1.24 | 1.56 | 1.35 | 0.863 | 2.31 | – | – | – | – | – | – | – | – | – |
| C(/Cc1ccc2c(c1)OCO2)=N\NC1=NCCCN1 | > 100 | > 100 | > 100 | > 100 | > 100 | 81.1 | > 100 | > 100 | > 100 | – | – | – | – | – | – | – | – | – |
| COC(=O)c1c(-c2ccc(Cl)cc2)cc2c3ccccc3n(C)c2c1C(=O)OC | > 100 | > 100 | > 100 | > 100 | > 100 | – | > 100 | > 100 | > 100 | – | – | – | – | – | – | – | – | – |

| SMILES | TGI (HOP-92 NSCLC) [µM] | TGI (HS 578T breast) [µM] | TGI (MALME-3M melanoma) [µM] | TGI (NCI-H460 lung) [µM] | TGI (OVCAR-8 ovarian) [µM] | TGI (SNB-75 CNS) [µM] | TGI (EKVX NSCLC) [µM] | TGI (U251 CNS) [µM] | TGI (MCF7 breast) [µM] | GI50 (HOP-92 NSCLC) [µM] | GI50 (HS 578T breast) [µM] | GI50 (MALME-3M melanoma) [µM] | GI50 (NCI-H460 lung) [µM] | GI50 (OVCAR-8 ovarian) [µM] | GI50 (SNB-75 CNS) [µM] | GI50 (EKVX NSCLC) [µM] | GI50 (U251 CNS) [µM] | GI50 (MCF7 breast) [µM] |
| --- | --- | --- | --- | --- | --- | --- | --- | --- | --- | --- | --- | --- | --- | --- | --- | --- | --- | --- |
| Nc1nc(Cl)cc(NCC2(O)CCCC2)n1 | > 100 | > 100 | > 100 | > 100 | > 100 | > 100 | > 100 | > 100 | > 100 | – | – | – | – | – | – | – | – | – |
| CC(C)(C)OC(=O)n1cc(C2CN(O)C(=O)C23CCC(=O)N3Cc2ccccc2)c2ccccc21 (stereo not drawn) | 50.8 | > 100 | > 100 | > 100 | – | > 100 | 47.7 | > 100 | > 100 | – | – | – | – | – | – | – | – | – |
| CO[C@]1(CN2CCN3CCCC[C@@H]3C2)/C=C/C[C@H](C)[C@@H](C)S(=O)(=O)NC(=O)c2ccc3c(c2)N(C[C@@H]2CC[C@H]21)C[C@@]1(CCCc2cc(Cl)ccc21)CO3 | 3.46 | 3.57 | – | – | – | 2.04 | 5.1 | – | – | 1.67 | 1.18 | – | – | – | 0.371 | 1.55 | – | – |
| COc1ccc(CCN2CCc3c(C)c(C#N)c4nc5ccccc5n4c32)cc1OC | 90.6 | 60.6 | 99.8 | > 100 | > 100 | 88.7 | – | > 100 | > 100 | – | – | – | – | – | – | – | – | – |
| NC(=O)CO/N=C1/C(c2c(O)[nH]c3ccccc23)=Nc2ccccc21 | > 100 | > 100 | > 100 | > 100 | > 100 | > 100 | > 100 | > 100 | – | – | – | – | – | – | – | – | – | – |
| CSc1nc(NC(C)C)c2c(n1)Sc1nc3ccccc3n1C2O (stereo not drawn) | > 100 | 13.4 | 49.6 | – | > 100 | 23.4 | > 100 | > 100 | > 100 | – | – | – | – | – | – | – | – | – |
| Cc1ccc(S(=O)(=O)N(CC(O)COc2ccccc2)c2ccc(F)cc2F)cc1 (stereo not drawn) | 12.4 | 39.9 | 36 | 33.7 | 31.3 | 29.4 | 35.7 | 27.5 | – | – | – | – | – | – | – | – | – | – |
| Cc1cc2c(c(=O)n1C)SCC2 | > 100 | > 100 | > 100 | > 100 | > 100 | > 100 | – | > 100 | – | – | – | – | – | – | – | – | – | – |
| O=C(Nc1cccc(-n2cc(-c3ccncc3)c(-c3ccc(O)c(Cl)c3)n2)c1)c1cccc(C(F)(F)F)c1 | 4.11 | > 100 | > 100 | > 100 | > 100 | > 100 | – | > 100 | > 100 | 0.434 | 2.26 | 5.59 | 3.42 | 3.89 | 2.07 | – | 2.14 | 2.97 |
| COc1c(C)c(C/C=C(\C)CC/C=C(\C)CCC=C(C)C)c(OC)c(OC)c1OC | > 100 | > 100 | – | > 100 | > 100 | > 100 | > 100 | > 100 | > 100 | – | – | – | – | – | – | – | – | – |
| Cc1cc2cc3c(cc2c(-c2ccc(N)cc2)n1)OCO3 | 75.4 | > 100 | > 100 | > 100 | > 100 | – | > 100 | > 100 | 53.6 | – | – | – | – | – | – | – | – | – |
| CCOP(=O)(OCC)/C(C#N)=C/c1cccn1Cc1ccccc1 | 36.9 | – | > 100 | > 100 | > 100 | > 100 | > 100 | 57.9 | > 100 | – | – | – | – | – | – | – | – | – |
| CC(=O)/C(=C\c1ccc(Cl)c(Cl)c1)C(=O)C(C)CN(C)C (stereo not drawn) | 9.55 | – | 21.9 | 48.9 | 6.45 | – | 27.8 | 12.9 | 22.4 | – | – | – | – | – | – | – | – | – |
| CCOC(=O)C1(C(F)(F)F)N=C(CC)OC(N2CCOCC2)=N1 (stereo not drawn) | > 100 | > 100 | – | > 100 | > 100 | > 100 | > 100 | > 100 | > 100 | – | – | – | – | – | – | – | – | – |
| CSc1ccc(/C=C2\N=C(c3ccccc3)N(/N=C/c3cc4cc(C)ccc4nc3Cl)C2=O)cc1 | 40.1 | 65.9 | – | 57.7 | 42.4 | 49.2 | > 100 | 51.2 | 43.2 | – | – | – | – | – | – | – | – | – |
| CS(=O)(=O)NC12CCC(c3ccccc31)c1ccccc12 | > 100 | > 100 | > 100 | > 100 | – | > 100 | > 100 | > 100 | > 100 | – | – | – | – | – | – | – | – | – |
| CCOC(=O)c1cn(C)c(=S)n2c1nc1ccccc12 | > 100 | – | – | > 100 | > 100 | > 100 | > 100 | > 100 | > 100 | – | – | – | – | – | – | – | – | – |
